The source of these data is ChEMBL document CHEMBL1201862, “PubChem BioAssay data set” (2004).

Where “and” joins values, the source holds several entries; their conditions need not be identical. Equal values may be shown once. Calls of active or inactive are those of the source. Where only a bound is given, the exact number is not on record here.

For data set [1], the target named is T1, Heat shock factor protein 1 (Mus musculus, UniProt P38532).
T1 sequence (P38532 whole entry): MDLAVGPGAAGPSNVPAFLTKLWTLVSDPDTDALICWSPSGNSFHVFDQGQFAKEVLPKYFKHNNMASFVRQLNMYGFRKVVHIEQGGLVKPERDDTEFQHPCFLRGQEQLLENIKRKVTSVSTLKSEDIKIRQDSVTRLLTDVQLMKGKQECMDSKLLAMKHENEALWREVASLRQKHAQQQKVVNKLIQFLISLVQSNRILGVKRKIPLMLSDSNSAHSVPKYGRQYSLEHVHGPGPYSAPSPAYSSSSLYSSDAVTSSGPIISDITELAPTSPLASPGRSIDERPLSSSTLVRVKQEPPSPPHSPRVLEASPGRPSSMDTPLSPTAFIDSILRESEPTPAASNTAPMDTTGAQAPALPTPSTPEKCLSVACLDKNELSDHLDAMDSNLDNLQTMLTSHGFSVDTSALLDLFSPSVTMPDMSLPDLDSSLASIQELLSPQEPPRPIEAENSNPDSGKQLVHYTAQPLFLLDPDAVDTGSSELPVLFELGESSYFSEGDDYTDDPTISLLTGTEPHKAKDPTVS
Nature of the data set: inhibition of MG132-induced HSE-luciferase signal, confirmation, cell-based, NIH3T3, luminescence, dose retest (AID 2382).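 Note: NIH3T3 fibroblasts with HSF1-driven luciferase reporter stressed by proteasome inhibitor MG132; luminescence from HSF1-driven luciferase expression after 8 hours of MG132 stress.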 It is filed as functional.

Data set [2] deals with Cytochrome P450 3A4 (Homo sapiens, UniProt P08684).
Cytochrome P450 3A4, sequence (P08684 whole entry): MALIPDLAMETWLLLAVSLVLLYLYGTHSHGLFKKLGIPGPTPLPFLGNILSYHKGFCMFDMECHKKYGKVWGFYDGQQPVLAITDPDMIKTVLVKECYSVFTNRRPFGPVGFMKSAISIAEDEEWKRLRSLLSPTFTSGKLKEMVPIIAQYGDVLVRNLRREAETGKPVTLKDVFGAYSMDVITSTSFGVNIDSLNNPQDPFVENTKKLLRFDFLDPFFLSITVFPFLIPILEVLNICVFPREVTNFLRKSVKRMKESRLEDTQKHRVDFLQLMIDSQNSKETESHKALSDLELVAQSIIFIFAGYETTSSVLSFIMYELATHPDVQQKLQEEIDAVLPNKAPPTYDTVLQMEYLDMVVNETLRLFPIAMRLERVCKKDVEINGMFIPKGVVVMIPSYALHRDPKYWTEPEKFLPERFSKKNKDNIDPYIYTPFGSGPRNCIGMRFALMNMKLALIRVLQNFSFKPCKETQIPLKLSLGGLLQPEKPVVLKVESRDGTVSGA
In data set [3] the target is T2, Cytochrome P450 1A2 (Homo sapiens, UniProt P05177).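 Note: PubChem cytochrome P450 panel assay, CYP1A2 panel member.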
T2 sequence (P05177 whole entry): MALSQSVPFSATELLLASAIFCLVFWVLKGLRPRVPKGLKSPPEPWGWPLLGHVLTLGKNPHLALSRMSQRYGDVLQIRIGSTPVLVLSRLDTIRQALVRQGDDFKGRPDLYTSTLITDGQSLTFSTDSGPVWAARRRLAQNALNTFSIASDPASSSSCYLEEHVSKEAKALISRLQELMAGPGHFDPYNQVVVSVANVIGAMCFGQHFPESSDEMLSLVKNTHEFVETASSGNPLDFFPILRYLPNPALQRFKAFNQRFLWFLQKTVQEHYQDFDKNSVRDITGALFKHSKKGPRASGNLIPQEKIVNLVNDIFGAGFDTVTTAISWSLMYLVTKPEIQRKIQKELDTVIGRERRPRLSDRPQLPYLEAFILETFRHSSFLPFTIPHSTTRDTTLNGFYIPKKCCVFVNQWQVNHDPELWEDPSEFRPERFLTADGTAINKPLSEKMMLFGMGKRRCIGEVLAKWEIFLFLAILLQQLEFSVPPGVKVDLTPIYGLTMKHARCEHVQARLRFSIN

The target in data set [4] is Cytochrome P450 2C19 (Homo sapiens, UniProt P33261). Kind of data set: Cytochrome panel assay with activity outcomes. Panel member name: p450-cyp2c19 Compounds with AC50 equal or less than 10 uM are considered active. The data set is classed as functional.
Cytochrome P450 2C19, sequence (P33261 whole entry): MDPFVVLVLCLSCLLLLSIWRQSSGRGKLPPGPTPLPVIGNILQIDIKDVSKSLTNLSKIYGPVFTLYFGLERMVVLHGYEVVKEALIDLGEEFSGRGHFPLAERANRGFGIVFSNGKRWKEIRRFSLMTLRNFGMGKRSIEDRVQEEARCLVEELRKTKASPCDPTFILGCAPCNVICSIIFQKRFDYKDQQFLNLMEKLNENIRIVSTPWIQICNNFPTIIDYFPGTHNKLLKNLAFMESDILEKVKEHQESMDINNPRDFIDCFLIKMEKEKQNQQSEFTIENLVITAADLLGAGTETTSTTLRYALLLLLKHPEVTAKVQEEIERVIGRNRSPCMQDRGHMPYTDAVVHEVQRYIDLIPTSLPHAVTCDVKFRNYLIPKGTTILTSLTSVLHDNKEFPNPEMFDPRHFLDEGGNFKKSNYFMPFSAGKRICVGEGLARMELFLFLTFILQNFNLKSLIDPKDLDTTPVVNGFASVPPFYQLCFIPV
Data set [5] deals with Cytochrome P450 2C9 (Homo sapiens, UniProt P11712).
Cytochrome P450 2C9, sequence (P11712 whole entry): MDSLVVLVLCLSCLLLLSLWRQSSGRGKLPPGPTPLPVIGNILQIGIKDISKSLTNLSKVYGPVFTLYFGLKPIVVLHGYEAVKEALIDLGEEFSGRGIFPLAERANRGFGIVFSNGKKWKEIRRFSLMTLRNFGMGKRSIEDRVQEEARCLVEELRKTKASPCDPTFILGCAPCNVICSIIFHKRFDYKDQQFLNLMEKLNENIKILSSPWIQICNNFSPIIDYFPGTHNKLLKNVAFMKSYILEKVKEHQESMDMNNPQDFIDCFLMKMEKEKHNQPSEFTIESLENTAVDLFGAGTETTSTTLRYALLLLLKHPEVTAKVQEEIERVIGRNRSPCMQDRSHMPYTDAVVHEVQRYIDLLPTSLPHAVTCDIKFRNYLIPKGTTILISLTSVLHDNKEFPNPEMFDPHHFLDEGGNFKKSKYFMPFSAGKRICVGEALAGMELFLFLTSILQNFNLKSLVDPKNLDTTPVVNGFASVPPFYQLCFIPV
For data set [6], the target named is T3, Streptokinase A (Streptococcus pyogenes serotype M1, UniProt P10520).
T3 sequence (P10520 whole entry): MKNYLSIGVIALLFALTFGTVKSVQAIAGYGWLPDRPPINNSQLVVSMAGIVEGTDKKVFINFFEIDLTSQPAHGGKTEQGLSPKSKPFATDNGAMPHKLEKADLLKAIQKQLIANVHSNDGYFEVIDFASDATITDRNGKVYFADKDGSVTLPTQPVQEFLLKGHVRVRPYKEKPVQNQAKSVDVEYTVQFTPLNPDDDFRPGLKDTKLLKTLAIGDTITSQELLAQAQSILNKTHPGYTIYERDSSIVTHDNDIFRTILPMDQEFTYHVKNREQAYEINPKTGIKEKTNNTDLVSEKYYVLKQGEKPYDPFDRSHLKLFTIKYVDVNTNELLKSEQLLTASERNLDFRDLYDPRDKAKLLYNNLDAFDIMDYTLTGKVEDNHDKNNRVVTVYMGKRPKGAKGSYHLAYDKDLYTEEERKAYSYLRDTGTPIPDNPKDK
Nature of the data set: S. pyogenes streptokinase expression inhibitors, potency, dose response, plasminogen activation absorbance, OD405 (AID 1914).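 Note: secreted streptokinase activity via plasminogen activation per viability signal from cell pellet.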 The data set is classed as functional, Streptococcus pyogenes M1 GAS.

Data set [7] addresses Cytochrome P450 2D6 (Homo sapiens, UniProt P10635).
The subject of data set [8] is Streptococcus. Nature of the data set: Group A Streptococcus viability loss, dose response, counter-screen for streptokinase expression inhibitor project, luminescence, BacTiterGlo (AID 1915).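 Note: potency for reduction of bacterial viability or growth.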 It is filed as functional, organism-based. In general terms: The purpose of a counterscreen is to sort out artefacts and off-target activity.
In data set [9] the test system is Streptococcus sp. 'group A'. Nature of the data set: growth inhibition of control SK(-) GAS strain, dose response, counter-screen for streptokinase expression inhibitor project, luminescence, kanamycin, BacTiterGlo, confirmation (AID 1900). It is filed as functional, organism-based.

Cytochrome P450 2D6, sequence (P10635 whole entry): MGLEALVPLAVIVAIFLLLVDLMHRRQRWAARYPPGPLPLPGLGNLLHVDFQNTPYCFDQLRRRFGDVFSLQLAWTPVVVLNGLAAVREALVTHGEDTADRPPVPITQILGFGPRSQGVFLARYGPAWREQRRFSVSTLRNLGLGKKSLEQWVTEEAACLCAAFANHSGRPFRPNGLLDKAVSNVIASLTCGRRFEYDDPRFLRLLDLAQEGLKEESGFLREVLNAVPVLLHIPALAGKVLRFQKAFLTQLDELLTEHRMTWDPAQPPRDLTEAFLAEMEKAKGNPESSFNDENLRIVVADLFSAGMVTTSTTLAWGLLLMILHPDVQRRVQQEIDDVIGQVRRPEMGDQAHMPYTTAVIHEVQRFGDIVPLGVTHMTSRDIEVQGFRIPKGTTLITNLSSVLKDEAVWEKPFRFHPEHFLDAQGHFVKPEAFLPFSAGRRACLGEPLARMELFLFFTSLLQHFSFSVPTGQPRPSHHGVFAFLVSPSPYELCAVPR

The EC50 is the concentration giving half of the maximal effect. As for `Cc1cccc(NS(=O)(=O)c2cc3c(cc2C)NC(=O)CO3)c1`, in data set [1], the concentration giving a half-maximal response (EC50) was > 195 µM (not active).

Broadly, the AC50 is the concentration at which the activity in the assay is half-maximal. On to `O=c1[nH]c(=S)[nH]c(-c2ccccc2)c1Cc1c(O)ccc2ccccc12` [CAMBINOL], for which the concentration at half-maximal activity (AC50) in [2] was 0.631 µM (inconclusive); in data set [3], 1 µM (inconclusive); in data set [4] (read-out: AC50), 0.0794 µM (inconclusive); in [5], 7.94 µM (inconclusive).

As to `O=C(Nc1ccc2c(c1)nc1n2CCN(C2CCCCC2)C1)NC1CCCCC1`, the concentration at half-maximal activity (AC50) in data set [2] is 15.8 µM (inconclusive).

On to `Cc1nc(Nc2nc(-c3ccccc3)cc(=O)[nH]2)nc2ccccc12`, for which the EC50 in data set [6] was > 150 µM (not active).

Take `O=c1[nH]c2ccccc2/c(=N\S(=O)(=O)c2ccc(Cl)cc2)n1-c1ccccc1`: the AC50 in data set [2] is 2.82 µM (inconclusive); in data set [3], 8.91 µM (inconclusive); in [4] (read-out: AC50), 25.1 µM (inconclusive); in data set [5] it was 0.891 µM (inconclusive).

For `CCCn1c(SCC(=O)c2c(C)[nH]c(C)c2C(=O)OCC)nc2ccccc21`, in data set [1], the EC50 is listed as > 195 µM (not active).

With `N#Cc1cccc(NC(=O)N2CC3(CCN(C(=O)c4cc(C(F)(F)F)cc(C(F)(F)F)c4)CC3)C2)c1`, the AC50 in data set [2] is 31.6 µM (inconclusive); in [7], 20 µM (inconclusive).

For `CO[C@H]1COC(=O)[C@@H](C)COC(=O)[C@@H](COCc2ccccc2)NC(=O)C/C=C\[C@H]1C`, in [2], the AC50 is 3.98 µM (inconclusive).

With `Oc1ccc(Br)cc1CNn1cnnc1`, the AC50 in [2] is 35.5 µM (inconclusive); in data set [3], 14.1 µM (inconclusive); in data set [5], 17.8 µM (inconclusive).

In the case of `C=CCC1(C(=O)NCCO)CCN(C(=O)OC(C)(C)C)CC1`, in data set [1], the half-maximal effective concentration (EC50) was > 195 µM (not active).

With `Cc1ccc2c(c1)N(CCC(=O)NCCN1CCOCC1)C(=O)CO2`, the AC50 in data set [2] was 25.1 µM (inconclusive); in [4] (read-out: AC50), 39.8 µM (inconclusive); in data set [5] it was 39.8 µM (inconclusive).

As for `O=C(OCn1nnc2ccccc2c1=O)c1cc(-c2ccccc2)nc2ccccc12`, in [1], the concentration giving a half-maximal response (EC50) is on record as > 195 µM (not active).

`COc1ccc(N2CCN(C(CNC(=O)C(=O)NCc3ccncc3)c3ccco3)CC2)cc1` (centres undefined): the concentration giving a half-maximal response (EC50) in data set [1] is reported as > 195 µM (not active).

Consider `NC(=NNC(=O)c1sccc1OCc1ccc(Cl)cc1Cl)c1ccccn1`, for which, in [6], the EC50 is 35.4 µM (active).

Take `Cc1cc(NC(=O)c2cnccn2)no1`: the EC50 in [8], in data set [6] and in data set [9] was > 150 µM (not active) throughout.

`CCNc1ncc2nc(-c3cc(F)cc(F)c3)c(=O)n(CCOC)c2n1`: in data set [2], the AC50 is 7.94 µM (inconclusive).

Consider `CCn1c(C)nc2cc(C(=O)NNC(=S)NC(=O)c3ccc(OC)cc3)ccc21`, for which the EC50 in [8] was 95.3 µM (active); in data set [6] it was > 150 µM (not active); in [9] it was 9.55 µM (active).

On to `COc1ccc(CC(C)Nc2cccc(SC)c2)cc1` (centres undefined), for which the 50% effective concentration (EC50) in data set [1] was > 195 µM (not active).

Turning to `CC(C)CC(=O)N1CCC(O)(CS(=O)(=O)Cc2ccc(Cl)cc2)CC1`, the AC50 in [2] is 8.91 µM (inconclusive).

For `O=C1CC(N2CCCCC2)C(=O)N1c1ccccc1` (centres undefined), the EC50 in [1] is given as > 195 µM (not active).

With `CC1=C/C(=N/O)C([C@H]2C=C(C)CC(C)(C)[C@@H]2O)C(C)(C)C1` (some centres undefined), the AC50 in data set [2] is 5.01 µM (inconclusive).

Consider `Cc1ccc(-c2nc3nc(O)cc(NC(=O)c4cccs4)n3n2)cc1`, for which the half-maximal effective concentration (EC50) in [8] was > 150 µM (not active); in data set [6], > 150 µM (not active); in [9] it was 15.4 µM (active).

In the case of `O=C(CSc1nc(-c2ccc(Cl)cc2)nc(=O)[nH]1)Nc1cccc(Cl)c1`, the EC50 in [6] is 4.65 µM (active).

Consider `COc1ccc(Br)cc1CN1CCN(CCO)CC1`, for which, in data set [1], the half-maximal effective concentration (EC50) is > 195 µM (not active).

On to `NC(=S)N/N=C1\CC(n2nnnc2-c2ccccc2Cl)C2COC1O2` (centres undefined), for which the EC50 in data set [1] is > 195 µM (not active).

Take `CC(=O)N1CCC2(CCCN(C(c3ccccc3)c3ccccc3)C2)CC1`: the values for the half-maximal activity concentration (AC50) in data set [2] and in [5] were 12.6 µM (inconclusive) and 31.6 µM (inconclusive), respectively.

Take `CN(C(=O)c1ccc(OC2CCN(Cc3ccccn3)CC2)cc1)C1CCCCC1`: the EC50 in [1] is on record as > 195 µM (not active).

As to `CCC(Nc1cc(OC)ccc1OC)=C1C(=O)NC(=O)NC1=O`, the AC50 is 39.8 µM (inconclusive) in [2] and 31.6 µM (inconclusive) in data set [4] (read-out: AC50).

Regarding `NC(=O)c1ccc[n+](CC(=O)OCCC23CC4CC(CC(C4)C2)C3)c1`, the concentration for a half-maximal effect (EC50) in data set [1] was > 195 µM (not active). Besides, the AC50 in [7] was 39.8 µM (inconclusive).

Turning to `CCCCC1C(=O)NC(=S)NC1=O`, the concentration giving a half-maximal response (EC50) in data set [1] is recorded as > 195 µM (not active).

Turning to `CN(C)c1ncc2ncc(=O)n(Cc3cccs3)c2n1`, the half-maximal activity concentration (AC50) is 15.8 µM (inconclusive) in data set [2], 12.6 µM (inconclusive) in data set [7] and 39.8 µM (inconclusive) in data set [5].

Take `COc1cccc(C(c2sc3nc(C)nn3c2O)N2CCN(C(=O)c3ccco3)CC2)c1` (centres undefined): the concentration giving a half-maximal response (EC50) in data set [1] was > 195 µM (not active).

For the molecule `CC(C)c1ccc(C(=O)NC(=S)Nc2ccc3[nH]c(=O)[nH]c3c2)cc1`, the concentration for a half-maximal effect (EC50) in [6] was > 150 µM (not active).

As to `CCOC(=O)c1sc(NC(=O)CSc2nnc(-c3ccccc3)[nH]2)c(C#N)c1C`, the half-maximal effective concentration (EC50) in [1] was > 195 µM (not active).

On to `CCC(C)NCc1ccc(C(=O)OC)o1` (centres undefined), for which the AC50 in data set [7] is 14.1 µM (inconclusive); in data set [4] (read-out: AC50), 15.8 µM (inconclusive); in data set [5] it was 0.447 µM (inconclusive).

`CN=C(S)N(CCc1c(C)[nH]c2ccc(F)cc12)Cc1cccnc1`: the half-maximal effective concentration (EC50) in data set [1] was > 195 µM (not active).

On to `COc1ccc(C(=O)CSc2[nH]c(=O)cc(C(F)(F)F)c2C#N)cc1`, for which the EC50 in data set [6] was 8.62 µM (active).

Take `CCOC(=O)C1CCCN(CCC(=O)Nc2cc(OC)ccc2OC)C1` (centres undefined): the 50% effective concentration (EC50) in data set [1] is > 195 µM (not active).

For `O=C1CC(=O)N(CCc2ccc(F)cc2)C(=O)N1`, the values for the AC50 in [2], in [4] (read-out: AC50) and in data set [5] were 31.6 µM (inconclusive), 31.6 µM (inconclusive) and 25.1 µM (inconclusive), respectively.

Consider `O=C(NCc1cc(F)cc2c1OCCO2)[C@H]1C[C@@H]1[C@H](NP(=O)(c1ccccc1)c1ccccc1)c1ccccc1`, for which the AC50 in [2] was 3.98 µM (inconclusive).

For `COCCCNC(=O)CC(NS(=O)(=O)c1ccc(C)cc1)c1ccc(OC)cc1` (centres undefined), the half-maximal effective concentration (EC50) in [1] is > 195 µM (not active).

On to `O=C(N/N=C\c1c[nH]nc1-c1ccccc1)c1cccs1`, for which, in [1], the EC50 is listed as > 195 µM (not active).

For `CCC(c1nnnn1CCOC)N1CCN(C(=O)c2ccco2)CC1` (centres undefined), in data set [2], the half-maximal activity concentration (AC50) was 28.2 µM (inconclusive).

As to `CCOC(=O)c1ccc(Oc2nc(NC)nc(Nc3ccccc3)n2)cc1`, in [1], the 50% effective concentration (EC50) is reported as > 195 µM (not active).

In the case of `NCCC(=O)NCCc1c[nH]cn1` [CARCININE], the AC50 in data set [7] was 31.6 µM (inconclusive) and 10 µM (inconclusive); in data set [4], “inconclusive”.

As to `CNc1nc(-c2ccccc2C(F)(F)F)nc2ccccc12`, the AC50 was 20 µM (inconclusive) in data set [7] and 31.6 µM (inconclusive) in [4] (read-out: AC50).
